In PubChem BioAssay (NCI):
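1) Cells in 96-well plates. 2) Compound, 48 h, 5 concentrations. 3) Linear interpolation between surrounding doses. 4) Unreached endpoint = highest concentration. TGI marks complete inhibition of growth.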

Tests used:
Assay in all cases: NCI-60 cell line screen, 48 h
SF-268 CNS = tested on: SF-268 CNS
NCI-H226 lung = tested on: NCI-H226 lung
MDA-N = tested on: MDA-N
K-562 leukemia = tested on: K-562 leukemia
HOP-62 NSCLC = tested on: HOP-62 NSCLC
UACC-62 melanoma = tested on: UACC-62 melanoma
HL-60(TB) leukemia = tested on: HL-60(TB) leukemia
TK-10 renal = tested on: TK-10 renal
OVCAR-4 ovarian = tested on: OVCAR-4 ovarian
EKVX NSCLC = tested on: EKVX NSCLC
PC-3 prostate = tested on: PC-3 prostate
M14 melanoma = tested on: M14 melanoma
HCC-2998 colon = tested on: HCC-2998 colon
SF-295 CNS = tested on: SF-295 CNS
SW-620 colon = tested on: SW-620 colon
MALME-3M melanoma = tested on: MALME-3M melanoma
OVCAR-5 ovarian = tested on: OVCAR-5 ovarian
MOLT-4 leukemia = tested on: MOLT-4 leukemia
RPMI-8226 leukemia = tested on: RPMI-8226 leukemia

Row | Compound | TGI (SF-268 CNS) | TGI (NCI-H226 lung) | TGI (MDA-N) | TGI (K-562 leukemia) | TGI (HOP-62 NSCLC) | TGI (UACC-62 melanoma) | TGI (HL-60(TB) leukemia) | TGI (TK-10 renal) | TGI (OVCAR-4 ovarian) | TGI (EKVX NSCLC) | TGI (PC-3 prostate) | TGI (M14 melanoma) | TGI (HCC-2998 colon) | TGI (SF-295 CNS) | TGI (SW-620 colon) | TGI (MALME-3M melanoma) | TGI (OVCAR-5 ovarian) | TGI (MOLT-4 leukemia) | TGI (RPMI-8226 leukemia)
1 | CC(C)=C=CC(C)(C)NS(=O)(=O)NC(C)(C)C=C=C(C)C | > 100 µM | > 100 µM | > 100 µM | > 100 µM | > 100 µM | > 100 µM | > 100 µM | > 100 µM | > 100 µM | > 100 µM | > 100 µM | > 100 µM | > 100 µM | > 100 µM | > 100 µM | > 100 µM | > 100 µM | – | –
2 | CCO/N=C(/CC)c1ccc(Br)s1 | > 100 µM | > 100 µM | > 100 µM | > 100 µM | > 100 µM | > 100 µM | > 100 µM | > 100 µM | > 100 µM | > 100 µM | > 100 µM | > 100 µM | > 100 µM | > 100 µM | > 100 µM | > 100 µM | > 100 µM | > 100 µM | –
3 | C[Si](C)(C)C#CCOC=C1CC1 | > 100 µM | > 100 µM | > 100 µM | > 100 µM | > 100 µM | > 100 µM | > 100 µM | > 100 µM | > 100 µM | > 100 µM | > 100 µM | > 100 µM | > 100 µM | > 100 µM | > 100 µM | > 100 µM | > 100 µM | > 100 µM | –
4 | NC1=CN(Cc2ccccc2)C2=N/C(=C\c3ccco3)C(=O)N12 | > 100 µM | > 100 µM | > 100 µM | > 100 µM | > 100 µM | > 100 µM | > 100 µM | > 100 µM | > 100 µM | > 100 µM | > 100 µM | > 100 µM | > 100 µM | > 100 µM | > 100 µM | > 100 µM | > 100 µM | > 100 µM | –
5 | CCCNC(=O)c1cc(NC(=O)c2cc(NC(=O)CCS(=O)(=O)OC)cn2C)cn1C | – | – | > 69.8 µM | > 100 µM | > 53.1 µM | 48.7 µM | – | > 100 µM | > 73.6 µM | > 100 µM | 98.9 µM | > 76.7 µM | > 100 µM | > 100 µM | > 100 µM | 24.6 µM | > 100 µM | > 87.8 µM | > 100 µM
6 | CSc1nc(Cl)c2c(n1)Sc1nc3ccccc3n1N=C2 | > 100 µM | > 100 µM | 59.9 µM | 50 µM | > 100 µM | 84.3 µM | – | > 100 µM | > 100 µM | – | 48 µM | 46.3 µM | 60.9 µM | > 100 µM | 29.3 µM | 68.2 µM | 97.2 µM | 63.2 µM | 60 µM
7 | CC1(C)O[C@@H](CP(c2ccc3ccccc3c2)c2ccc3ccccc3c2)[C@H](CP(c2ccc3ccccc3c2)c2ccc3ccccc3c2)O1 | > 100 µM | > 100 µM | > 100 µM | > 100 µM | > 100 µM | > 100 µM | – | > 100 µM | > 100 µM | > 100 µM | > 100 µM | > 100 µM | > 100 µM | > 100 µM | > 100 µM | – | > 100 µM | > 100 µM | –
8 | C=[N+](CNC(=O)CNC(=O)C(Cc1ccccc1)NC(=O)OC(C)(C)C)C(=O)CNC(=O)C(Cc1ccccc1)NC(=O)OC(C)(C)C (stereo not given) | > 100 µM | > 100 µM | > 100 µM | > 100 µM | > 100 µM | > 100 µM | – | – | > 100 µM | > 100 µM | > 100 µM | > 100 µM | > 100 µM | > 100 µM | > 100 µM | > 100 µM | > 100 µM | > 100 µM | > 100 µM
9 | N=c1oc2ccc(Cl)cc2cc1C(=O)NC1CCCCC1 | > 100 µM | > 100 µM | > 100 µM | > 100 µM | > 100 µM | > 100 µM | > 100 µM | – | > 100 µM | – | > 100 µM | > 100 µM | 89.1 µM | – | > 100 µM | – | > 100 µM | > 100 µM | > 100 µM
10 | C[C@]12CC[C@H]3[C@@H](CCC4=CC(=O)CC[C@@]43C)[C@@H]1CC[C@@H]2OC(=O)c1cccc2c(=O)c3ccccc3[nH]c12 | > 100 µM | > 100 µM | > 100 µM | 80 µM | > 100 µM | > 100 µM | – | > 100 µM | > 100 µM | > 100 µM | > 100 µM | > 100 µM | > 100 µM | > 100 µM | > 100 µM | > 100 µM | > 100 µM | 89.2 µM | 87.7 µM
11 | CC(C)[Si](OC1=CCC[C@H]2NC(=O)[C@@H](Cc3ccc([N+](=O)[O-])cc3)[C@@]12C)(C(C)C)C(C)C | 24.8 µM | – | 18 µM | 13.7 µM | 17.3 µM | 27.7 µM | 24.4 µM | 23.9 µM | 17.1 µM | 18.7 µM | 12 µM | 26.2 µM | 4.22 µM | 16.9 µM | – | 43.4 µM | 21.2 µM | > 100 µM | –
12 | O=C(O)CCCN=C(C(=NCCCC(=O)O)c1ccccc1)c1ccccc1 | > 100 µM | > 100 µM | > 100 µM | > 100 µM | > 100 µM | > 100 µM | – | > 100 µM | > 100 µM | > 100 µM | > 100 µM | > 100 µM | > 100 µM | > 100 µM | > 100 µM | – | > 100 µM | > 100 µM | > 100 µM
13 | S=c1sscc1N1CCSc2ssc(=S)c21 | > 100 µM | > 100 µM | > 100 µM | > 100 µM | – | > 100 µM | > 100 µM | 81.8 µM | 29.8 µM | 49.8 µM | > 100 µM | > 100 µM | > 100 µM | – | > 100 µM | > 100 µM | > 100 µM | > 100 µM | > 100 µM
